Experiments:
Type in all cases: cell-based, human
CLN5 = test: DNA microarray, CLN5 expression in fibroblasts exposed to genistein; conditions: for CLN5 fold change Average: 48 h vs DMSO
Protocol: (§1) The experiments were conducted to characterise the transcriptomic profile of human fibroblast cells exposed to genistein, and in particular to determine the expression of genes encoding lysosomal enzymes involved in metabolism (i.e. synthesis and degradation) of organic substances. The absence or deficiency of these enzymes' activity is responsible for occurrence of various lysosomal storage diseases (LSD) (including MPS). The tested hypothesis assumed that genistein influences the expression of many genes, among which there are genes coding for enzymes required in metabolism of compounds, which are pathologically stored in LSD. The results provide important information regarding genistein action on the molecular level within the range of gene expression modulation by this substance. The experiment was conducted in biological quintuplicates. Human dermal fibroblasts (HDFa) were exposed in vitro for 1, 24 or 48 hours to: 30, 60 or 100 μM of genistein; 0.05% DMSO (K1); or were untreated (control cells) (K2), and total RNA was isolated and analysed.
(§2) Fibroblast cells were grown in Dulbecco (DMEM) medium supplemented with 10% fetal bovine serum (FBS) with the addition of 1% antibiotics and anti-fungal agents at 37° C. in humidified atmosphere of 5% CO2, until the required confluency was obtained.
(§3) To determine the effect of tested compound on the transcriptom of the fibroblast cells, the growth medium was replaced with fresh medium, either non-supplemented (0.05% DMSO), or containing genistein (30, 60 or 100 μM, in 0.05% DMSO). The exposure was done for 1, 24 or 48 hours.
(§4) Total RNA was isolated from fibroblasts using High Pure RNA Isolation Kit according to the protocol and then it was quantitatively evaluated using Quant-It™ RiboGreen® Assay Kit.
(§5) Biotinylated cRNA was prepared using Ambion Total PrepAmp Kit for Illumina arrays.
(§6) Standard hybridization and quantitative image analysis procedures—Illumina hybridization protocol and Illumina scanning protocol, were used.
(§7) Processing of the results was done during data definition, including: background correction (using background subtraction method), normalization (using quantile normalization algorithm with Illumina GenomeStudio software package: gene expression module version 1.9.0) and summarization (using method, which sums the values of signal intensities from a set of probes).

ACP5 = test: DNA microarray, ACP5 expression in fibroblasts exposed to genistein; conditions: for ACP5 fold change Average: 48 h vs DMSO
Protocol: as §1, §2, §3, §4, §5, §6, §7

EXT1 = test: DNA microarray, EXT1 expression in fibroblasts exposed to genistein
Protocol: as §1, §2, §3, §4, §5, §6, §7

O=c1c(-c2ccc(O)cc2)coc2cc(O)cc(O)c12 [genistein, 4′,5,7-trihydroxy-3-phenylchromen-4-one]
CLN5 fold change Average 1h30/1hK1 (CLN5; 30 μM, 1 h vs 0.05% DMSO): 1.0505 fold change | CLN5 fold change Average (CLN5; 30 μM): 1.3471 fold change | CLN5 fold change Average 1h60/1hK1 (CLN5; 60 μM, 1 h vs 0.05% DMSO): 1.028 fold change | CLN5 fold change Average (CLN5; 60 μM): 1.79 fold change | CLN5 fold change Average 1h100/1hK1 (CLN5; 100 μM, 1 h vs 0.05% DMSO): 1.05 fold change | CLN5 fold change Average (CLN5; 100 μM): 2.125 fold change | ACP5 fold change Average 1h30/1hK1 (ACP5; 30 μM, 1 h vs 0.05% DMSO): 0.9865 fold change | ACP5 fold change Average (ACP5; 30 μM): 1.6259 fold change | ACP5 fold change Average 1h60/1hK1 (ACP5; 60 μM, 1 h vs 0.05% DMSO): 1.066 fold change | ACP5 fold change Average (ACP5; 60 μM): 1.7507 fold change | ACP5 fold change Average 1h100/1hK1 (ACP5; 100 μM, 1 h vs 0.05% DMSO): 1.141 fold change | ACP5 fold change Average (ACP5; 100 μM): 1.763 fold change | EXT1 fold change Average 1h30/1hK1 (EXT1; 30 μM, 1 h vs 0.05% DMSO): 0.9138 fold change | EXT1 fold change Average 24h30/24hK1 (EXT1; 30 μM, 24 h vs 0.05% DMSO): 0.8048 fold change | EXT1 fold change Average 48h30/48hK1 (EXT1; 30 μM, 48 h vs 0.05% DMSO): 0.9291 fold change | EXT1 fold change Average 1h60/1hK1 (EXT1; 60 μM, 1 h vs 0.05% DMSO): 0.9881 fold change | EXT1 fold change Average 24h60/24hK1 (EXT1; 60 μM, 24 h vs 0.05% DMSO): 0.7005 fold change | EXT1 fold change Average 48h61/48hK1 (EXT1; 60 μM, 48 h vs 0.05% DMSO): 0.7648 fold change | EXT1 fold change Average 1h100/1hK1 (EXT1; 100 μM, 1 h vs 0.05% DMSO): 0.8358 fold change | EXT1 fold change Average 24h100/24hK1 (EXT1; 100 μM, 24 h vs 0.05% DMSO): 0.6022 fold change | EXT1 fold change Average 48h100/48hK1 (EXT1; 100 μM, 48 h vs 0.05% DMSO): 0.689 fold change

— patent publication US20150148551A1, “GENISTEIN FOR REDUCING LEVELS OF STORAGE COMPOUNDS IN THE TREATMENT AND/OR PREVENTION OF LYSOSOMAL STORAGE DISEASES (LSDS)” (3G THERAPEUTICS, INC., priority 2012, published 2015)
